{
  "source": "patent US20230183303A1",
  "about": "“Therapeutic Potential of Peptides from the \"Netrin-Like\" Domain of the FRZB Protein” (Université de Lorraine, priority 2020, published 2023)",
  "key": {"ATDC5 micromasses": {"test_system": "ATDC5 micromasses", "assay": "qRT-PCR relative expression of genes of interest in ATDC5 micromass culture (chondrogenesis)", "assay_type": "cell-based, mouse", "protocol": "Mouse chondrogenic ATDC5 cells (cartilage-specific chondrogenic strain) were cultured until confluent in maintenance medium containing 1:1 Dulbecco's modified Eagle's medium (DMEM): Ham's F-12 mix (Gibco) supplemented with 1% antibiotic (AB, Penicillin-Streptomycin, Gibco), 5% fetal bovine serum (FBS) (Gibco) and enriched with […] human transferrin (Sigma) and 30 nM sodium selenite (Sigma). Cells were trypsinized, washed and resuspended at 2.10^7 cells/mL in a chondrogenic medium made of maintenance medium enriched by 1× of ITS premix (resulting in 10 μg/mL insulin, 10 μg/mL human transferrin and 30 nM sodium selenite) (Life technologies). One droplet of cell suspension (10 μL) was placed at the center of each well of a 24-well plate. Cells were allowed to adhere for 2 h at 37° C., followed by addition of 500 μL chondrogenic medium supplemented. […] After 14 days, induction of hypertrophic differentiation and mineralization was induced by the mineralization medium made of α-MEM medium (Gibco) containing 1% AB, 5% FBS, 5 μg/ml human transferrin, 1× of ITS premix, 50 μg/ml ascorbic acid-2-phosphate (AA) (Sigma) and 10 mM β-glycerophosphate (BGP) (Sigma). […] Micromasses were collected at time points 1, 7, 14 21 and 28 days. Each time point was processed in three technical replicates. The medium was changed every other day. […] The genes of interest were articular chondrocyte markers (aggrecan, type 2 collagen (col2a1)), YAP/TAZ target genes (ctgf, ankrd) and pro-catabolic enzymes involved in the pathophysiology of OA (mmp3, mmp13).\n(§1) Total RNA was isolated using the Nucleospin RNA II kit (Macherey-Nagel) and reverse-transcribed using the MMLV reverse transcriptase (Thermo Fisher Scientific) following the manufacturers' instructions. The iTaq SYBR green qPCR master mix (BioRad) was used to assess the mRNA expression of target genes of interest. Primer sequences can be provided upon request. The following PCR conditions were used: 1 minute at 95° C., 40 cycles of 15 sec of denaturation at 95° C., followed by 1 minute of annealing-elongation at 60° C. Melting curve analysis was performed to determine the amplification of the specific product. Results were expressed using the comparative threshold method and were normalized to housekeeping gene PPIA (Peptidylprolyl Isomerase A) mRNA level for ATDC5 cells and MACs, or normalized to housekeeping gene S29 (ribosomal protein S29) mRNA level for MC3T3-E1 cells. The Via7 real-time PCR system (Thermo Fisher Scientific) was used for qRT-PCR measurements.\n(§2) ATDC5 cells were cultured as micromasses and differentiated during 14 days using ITS as mentioned previously. […] RNA was isolated and qPCR were performed for different target genes, i.e. type II collagen and aggrecan (articular chondrocyte extracellular matrix), CTGF (YAP/TAZ target genes, indicators of the pathway activity) and MMP3 (cartilage degrading enzyme increased during osteoarthritis) (FIG. 15). Alcian blue staining was performed on the micromasses cultures, and biochemical quantitation was performed as previously described (FIG. 16).\nas §2, with “gene, indicator” for “genes, indicators”, “17).” for “15).”, “18).” for “16).”"}, "Wnt/β-catenin pathway [1]": {"test_system": "Wnt/β-catenin pathway", "assay": "Western blot of Wnt/β-catenin pathway activation in ATDC5 micromasses", "assay_type": "cell-based, mouse", "details": "PEP16 at 100 and 300 ng/mL; day 1, 7, 14, 21; during chondrogenesis", "protocol": "Mouse chondrogenic ATDC5 cells (cartilage-specific chondrogenic strain) were cultured until confluent in maintenance medium containing 1:1 Dulbecco's modified Eagle's medium (DMEM): Ham's F-12 mix (Gibco) supplemented with 1% antibiotic (AB, Penicillin-Streptomycin, Gibco), 5% fetal bovine serum (FBS) (Gibco) and enriched with […] human transferrin (Sigma) and 30 nM sodium selenite (Sigma). Cells were trypsinized, washed and resuspended at 2.10^7 cells/mL in a chondrogenic medium made of maintenance medium enriched by 1× of ITS premix (resulting in 10 μg/mL insulin, 10 μg/mL human transferrin and 30 nM sodium selenite) (Life technologies). One droplet of cell suspension (10 μL) was placed at the center of each well of a 24-well plate. Cells were allowed to adhere for 2 h at 37° C., followed by addition of 500 μL chondrogenic medium supplemented. […] After 14 days, induction of hypertrophic differentiation and mineralization was induced by the mineralization medium made of α-MEM medium (Gibco) containing 1% AB, 5% FBS, 5 μg/ml human transferrin, 1× of ITS premix, 50 μg/ml ascorbic acid-2-phosphate (AA) (Sigma) and 10 mM β-glycerophosphate (BGP) (Sigma). […] Micromasses were collected at time points 1, 7, 14 21 and 28 days. Each time point was processed in three technical replicates. The medium was changed every other day. […]"}, "[2]": {"test_system": "7×TCF/LEF response elements (Super 8×TOPFlash reporter)", "assay": "Promoter activation assay, Super 8×TOPFlash luciferase reporter in ATDC5 cells stimulated with Wnt3a", "assay_type": "cell-based, mouse", "details": "peptide at 300 ng/ml; 10 or 100 ng/mL recombinant Wnt3a; 24 h", "procedure": "(§4) Results were normalized by-cotransfecting each of the above plasmid with the tyrosine kinase-renilla luciferase plasmid (Promega). Transfections were carried out using the Dharmafect kb transfection reagent (Fisher Scientific). Briefly, reporter plasmids and transfection reagent were diluted in serum-free medium, and then the diluted Dharmafect kb was added to the plasmids for an incubation time of 10 minutes at room temperature. During that time, cells were rinsed with PBS and were placed in fresh maintenance medium. When incubation was over, the mixture of transfection reagent-plasmids was dispensed in each well. Stimulations (with Wnt3a and/or PEP16 and/or PEP16bis) were carried out the next day."}, "MMP13": {"test_system": "MMP13", "assay": "MMP13 enzymatic activity in culture supernatants of mouse articular chondrocytes", "assay_type": "cell-based", "details": "PEP16 at 300 ng/mL with IL1β at 100 pg/mL; 24 h", "protocol": "(§3) Mouse articular chondrocyte (MACs) were isolated from femoral heads by enzymatic digestion of whole femoral head caps. Samples were washed three times in 1% AB/phosphate buffered saline (PBS) and incubated with 2 mg/ml pronase (Roche)/DMEM-F12 at 37° C. for 1 h at slow rotation 100 rpm followed by a 3 h incubation with 1.5 mg/ml collagenase B (Roche)/DMEM-F12 at 37° C. Cells were seeded at 1×10^6 cells/[…], and cultured for 7 to 14 days in growth medium DMEM-F12, containing 1% AB (Gibco), 10% FBS (Gibco) and 5% L-glutamine (Thermoscientific). Passage 1 cells were utilized for the experiments. The culture supernatants were then harvested in order to perform MMP13 enzymatic activity assay. The evaluation of the expression of genes of interest included articular chondrocyte markers (aggrecan, type 2 collagen (col2a1)), YAP/TAZ target genes (ankrd) and pro-catabolic enzyme involved in the pathophysiology of OA (mmp3).\nThe MMP13 enzymatic activity was assessed using the MMP13 fluorogenic substrate (Merck Millipore). Briefly, culture supernatants harvested at the end of the different experiments were mixed with 1.5 mM of 4-aminophenylmercuric acetate, and incubated for 1 h at 37° C., in order to turn every pro-MMPs into active MMPs. […] Fluorescence was evaluated using the following parameters, excitation 325 nm and emission 393 nm, on the Varioskan Flash device (Thermo Fisher Scientific). […]"}, "[3]": {"test_system": "mouse articular chondrocytes", "assay": "qRT-PCR relative expression of genes of interest in mouse articular chondrocytes", "assay_type": "cell-based", "protocol": "as §3, §1"}, "Wnt/β-catenin pathway [4]": {"test_system": "Wnt/β-catenin pathway", "details": "PEP16 at 300 or 1000 ng/mL; day 7, 14, 21; during osteogenesis", "protocol": "Cells were maintained in a humidified atmosphere of 5% CO2 at 37° C."}, "CamKII pathway": {"test_system": "CamKII pathway", "assay": "Western blot of CamKII pathway activation in MC3T3-E1 cells", "assay_type": "cell-based, mouse", "details": "PEP16 at 300 or 1000 ng/mL; early osteogenesis stages", "from_the_text": "Each time point was processed in three technical replicates. The medium was changed every two days."}, "[5]": {"test_system": "8×YAP response elements (8×GTIIC reporter)", "details": "PEP16 at 30 ng/ml; 24 h", "procedure": "as §4"}, "[6]": {"details": "300 ng/ml, differentiated 14 days with ITS, D14 vs CTL"}, "[7]": {"details": "PEP16 at 30, 100, 300 ng/mL, day 1, 7, 14, 21, 28, vs non-treated control, normalized with ppia"}, "[8]": {"details": "PEP16 at 300 ng/mL and wnt3a at 100 ng/mL, 24 and 48 h"}},
  "data": [
    {"sequence": "DRLGKKVKRWDMKLRH (PEP16)", "values": [
      {"measurement": "MMP3 expression", "setting": "ATDC5 micromasses; [6]", "value": "significant decrease"},
      {"measurement": "YAP/TAZ target genes (CTGF) expression", "setting": "ATDC5 micromasses; [6]", "value": "significant decrease"},
      {"measurement": "articular chondrocyte extracellular matrix genes (type II collagen and aggrecan) expression", "setting": "ATDC5 micromasses; [6]", "value": "significant increase"},
      {"measurement": "relative expression level of aggrecan", "setting": "ATDC5 micromasses; [7]", "value": "significantly enhanced the induction of the expression"},
      {"measurement": "relative expression level of col2a1 (type 2 collagen)", "setting": "ATDC5 micromasses; [7]", "value": "significantly enhanced the induction of the expression"},
      {"measurement": "relative expression level of ctgf (Hippo/YAP/TAZ target gene)", "setting": "ATDC5 micromasses; [7]", "value": "efficiently reduced the expression"},
      {"measurement": "relative expression level of mmp3", "setting": "ATDC5 micromasses; [7]", "value": "efficiently reduced the expression"},
      {"measurement": "relative expression level of mmp13", "setting": "ATDC5 micromasses; [7]", "value": "efficiently reduced the expression"},
      {"measurement": "Wnt/β-catenin pathway activation (active protein form over total protein form)", "setting": "Wnt/β-catenin pathway [1]", "value": "reduced in the activation of the Wnt/β-catenin pathway"},
      {"measurement": "activity of the canonical Wnt pathway in the Super TOPFlash luciferase reporter system (Firefly/renilla ratio)", "setting": "[2]", "value": "significantly reduce the activity"},
      {"measurement": "IL1β-induced MMP13 enzymatic activity in culture supernatant", "setting": "MMP13", "value": "significantly reduced"},
      {"measurement": "expression of Ankrd, a target gene of the Hippo/YAP/TAZ pathway", "setting": "[3]; 300 ng/mL, 12 h of stimulation", "value": "capable of reducing the expression"},
      {"measurement": "expression of MMP3 induced by Wnt3a", "setting": "[3]; 300 ng/mL, wnt3a at 100, 50, 30 ng/mL, 24 h of stimulation", "value": "counteract the inductive effects of Wnt3a"},
      {"measurement": "relative expression level of aggrecan (decrease induced by Wnt3a)", "setting": "[3]; [8]", "value": "had a tendancy to counteract"},
      {"measurement": "relative expression level of col2a1 (type 2 collagen; decrease induced by Wnt3a)", "setting": "[3]; [8]", "value": "had a tendancy to counteract"},
      {"measurement": "increase of NGF induced by Wnt3a", "setting": "[3]; PEP16 with Wnt3a, data not shown", "value": "had a tendancy to counteract"},
      {"measurement": "Wnt/β-catenin pathway activation", "setting": "Wnt/β-catenin pathway [4]", "value": "reduced in the activation"},
      {"measurement": "CamKII pathway activation", "setting": "CamKII pathway", "value": "efficiently increased the activation"},
      {"measurement": "activity of the Hippo/YAP/TAZ pathway in a luciferase-type reporter system (Firefly/renilla ratio)", "setting": "[5]", "value": "significantly reduced the activity"}
    ]}
  ]
}
